This passage reports EC50 results from patent publication US12091409B2, “Ether linked triazoles as NRF2 activators” (ASTEX THERAPEUTICS LIMITED, priority 2016, dated 2024).

Counter-ions that a name gives are not always drawn.

The subject of this experiment is NQO1 specific enzyme activity in BEAS-2B cells (marker for NRF2 activation). Nature of the experiment: BEAS-2B NQO1 MTT Assay. Type of experiment: cell-based. The conditions noted are these: Homo sapiens, BEAS-2B, 48 h, NQO1 specific activity induction, 48 hours with compound. From the text: NAD(P)H:quinone oxidoreductase 1 (NQO1), also called DT diaphorase, is a homodimeric FAD-containing enzyme that catalyzes obligatory NAD(P)H-dependent two-electron reductions of quinones and protects cells against the toxic and neoplastic effects of free radicals and reactive oxygen species arising from one-electron reductions. The transcription of NQO1 is finely regulated by NRF2, and thus NQO1 activity is a good marker for NRF2 activation. On day one, frozen BEAS-2B cells (ATCC) were thawed in a water bath, counted, and re-suspended at a concentration of 250,000 cells/mL. Fifty microliters of cells were plated in 384 well black clear-bottomed plates. Plates were incubated at 37° C., 5% CO2 overnight. On day two, plates were centrifuged and 50 nL of compound or controls were added to the cells. Plates were then incubated at 37° C., 5% CO2 for 48 hours. On day four, medium was aspirated from the plate and crude cell lysates were made by adding 13 uL of 1× Cell Signaling Technologies lysis buffer with 1 Complete, Mini, EDTA-free Protease Inhibitor Tablet (Roche) for each 10 mL of lysis buffer. After lysis plates were incubated for 20 minutes at room temperature. Two microliters of lysate were removed for use in Cell Titer Glo assay (Promega) and MTT cocktail was prepared (Prochaska et. al. 1998) for measurement of NQO1 activity. Fifty microliters of MTT cocktail was added to each well, plate was centrifuged, and analyzed on an Envision plate reader (Perkin Elmer) using Absorbance 570 nm label for 30 minutes. Product formation was measured kinetically and the pEC50 of NQO1 specific activity induction was calculated by plotting the change in absorbance (Delta OD/min) versus the log of compound concentration followed by 3-parameter fitting.
pEC50 is the negative log of the EC50.
EC50s<1 nM (+++++), EC50s 1 nM-10 nM (++++), EC50s 10 nM-100 nM (+++), EC50s 100 nM-1 uM (++), EC50s 1 uM-10 uM (+); EC50s>10 uM (−), or were not determined (ND).
For `Cc1ccc(C(OCc2cn(Cc3cccc(Cn4cc(C(C)(C)O)nn4)c3)nn2)C(C)(C)C(=O)O)cc1CN1C[C@@H](C)Oc2ccccc2S1(=O)=O` (stereo partly drawn) [Example 41, 3-((1-(3-((4-(2-Hydroxypropan-2-yl)-1H-1,2,3-triazol-1-yl)methyl)benzyl)-1H-1,2,3-triazol-4-yl)methoxy)-2,2-dimethyl-3-(4-methyl-3-(((R)-4-methyl-1,1-dioxido-3,4-dihydro-2H-benzo[b][1,4,5]oxathiazepin-2-yl)methyl)phenyl)propanoic acid], the EC50 (usually the concentration that produces a half-maximal response) lay within 10 to 100 nM.
For the molecule `CCn1cc(COC(c2ccc(C)c(CN(Cc3ccccn3)S(=O)(=O)c3cccc(Br)c3)c2)C(C)(C)C(=O)O)nn1` (stereo not shown) [Example 74, 3-(3-(((3-Bromo-N-(pyridin-2-ylmethyl)phenyl)sulfonamido)methyl)-4-methylphenyl)-3-((1-ethyl-1H-1,2,3-triazol-4-yl)methoxy)-2,2-dimethylpropanoic acid], the EC50 lay in the range of 10 to 100 nM.
With `CC[C@@H]1CN(Cc2cc(C(OCc3cn(Cc4cc(C)cc(Cn5cc(CO)nn5)c4)nn3)C(C)(C)C(=O)O)ccc2C)S(=O)(=O)c2ccccc2O1` (stereo partly drawn) [Example 27, 3-(3-(((R)-4-ethyl-1,1-dioxido-3,4-dihydro-2H-benzo[b][1,4,5]oxathiazepin-2-yl)methyl)-4-methylphenyl)-3-((1-(3-((4-(hydroxymethyl)-1H-1,2,3-triazol-1-yl)methyl)-5-methylbenzyl)-1H-1,2,3-triazol-4-yl)methoxy)-2,2-dimethylpropanoic acid], the EC50 was 1 to 10 nM.
In the case of `CC[C@@H]1CN(Cc2cc([C@@H](OCc3cn(C)nn3)C(C)(C)C(=O)O)ccc2C)Cc2ncccc2O1` [Example 108, (R)-3-(3-(((R)-2-Ethyl-2,3-dihydropyrido[2,3-f][1,4]oxazepin-4(5H)-yl)methyl)-4-methylphenyl)-2,2-dimethyl-3-((1-methyl-1H-1,2,3-triazol-4-yl)methoxy)propanoic acid Hydrochloride] it was 10 to 100 nM; in that of `CCn1cc(COC(c2ccc(C)c(CN(C3CCCCC3)S(=O)(=O)c3ccc(OC)cc3)c2)C(C)(C)C(=O)O)nn1` (stereo not shown) [Example 97, 3-(3-(((N-cyclohexyl-4-methoxyphenyl)sulfonamido)methyl)-4-methylphenyl)-3-((1-ethyl-1H-1,2,3-triazol-4-yl)methoxy)-2,2-dimethylpropanoic acid], 100 to 1000 nM.
In the case of `Cc1ccc(C(OCc2cn(Cc3cccc(CN=[N+]=[N-])c3)nn2)C(C)(C)C(=O)O)cc1CN1C[C@@H](C)Oc2ccccc2S1(=O)=O` (stereo partly drawn) [Example 3, 3-((1-(3-(Azidomethyl)benzyl)-1H-1,2,3-triazol-4-yl)methoxy)-2,2-dimethyl-3-(4-methyl-3-(((R)-4-methyl-1,1-dioxido-3,4-dihydro-2H-benzo[b][1,4,5]oxathiazepin-2-yl)methyl)phenyl)propanoic acid] it was under 1 nM.
The value for `Cc1ccc(C(OCc2cn(Cc3cccc(-c4ccc(C(=O)O)cc4)c3)nn2)C(C)(C)C(=O)O)cc1CN1C[C@@H](C)Oc2ccccc2S1(=O)=O` (stereo partly drawn) [Example 25, 3′-((4-((2-Carboxy-2-methyl-1-(4-methyl-3-(((R)-4-methyl-1,1-dioxido-3,4-dihydro-2H-benzo[b][1,4,5]oxathiazepin-2-yl)methyl)phenyl)propoxy)methyl)-1H-1,2,3-triazol-1-yl)methyl)-[1,1′-biphenyl]-4-carboxylic acid] was 10 to 100 nM.
On to `CC[C@@H]1CN(Cc2cc([C@@H](OCc3cn(CC)nn3)C(C)(C)C(=O)O)ccc2C)Cc2ccccc2O1` [Example 117, (R)-methyl 3-((1-ethyl-1H-1,2,3-triazol-4-yl)-methoxy)-3-(3-(((R)-2-ethyl-2,3-dihydro-benzo[f][1,4]oxazepin-4(5H)-yl)methyl)-4-methylphenyl)-2,2-dimethyl-propanoic acid, trifluoroacetate], for which the EC50 lay in the range of 10 to 100 nM.
The value for `CCn1cc(CO[C@H](c2ccc(C)c(CN3C[C@@H](C)Cc4ccncc4S3(=O)=O)c2)C(C)(C)C(=O)O)nn1` [Example 61, (3R)-((1-ethyl-1H-1,2,3-triazol-4-yl)methoxy)-2,2-dimethyl-3-(4-methyl-3-(((S)-4-methyl-1,1-dioxido-4,5-dihydropyrido[4,3-f][1,2]thiazepin-2(3H)-yl)methyl)phenyl)propanoic acid] was under 1 nM.
The value for `Cc1ccc(C(OCc2cn(CC3CCNCC3)nn2)C(C)(C)C(=O)O)cc1CN1C[C@@H](C)Oc2ccccc2S1(=O)=O` (stereo partly drawn) [Example 53, 2,2-Dimethyl-3-(4-methyl-3-(((R)-4-methyl-1,1-dioxido-3,4-dihydro-2H-benzo[b][1,4,5]oxathiazepin-2-yl)methyl)phenyl)-3-((1-(piperidin-4-ylmethyl)-1H-1,2,3-triazol-4-yl)methoxy)propanoic Acid, Formic Acid Salt] was 100 to 1000 nM; that for `Cc1ccc(C(OCc2cn(Cc3cccc(-c4cccc(C(=O)O)c4)c3)nn2)C(C)(C)C(=O)O)cc1CN1C[C@@H](C)Oc2ccccc2S1(=O)=O` (stereo partly drawn) [Example 26, 3′-((4-((2-Carboxy-2-methyl-1-(4-methyl-3-(((R)-4-methyl-1,1-dioxido-3,4-dihydro-2H-benzo[b][1,4,5]oxathiazepin-2-yl)methyl)phenyl)propoxy)methyl)-1H-1,2,3-triazol-1-yl)methyl)-[1,1′-biphenyl]-3-carboxylic acid] was 10 to 100 nM; that for `CCCn1cc(CO[C@H](c2ccc(C)c(CN3C[C@@H](C)Cc4ccccc4S3(=O)=O)c2)C(C)(C)C(=O)O)nn1` [Example 88, (R)-2,2-dimethyl-3-(4-methyl-3-(((S)-4-methyl-1,1-dioxido-4,5-dihydrobenzo[f][1,2]thiazepin-2(3H)-yl)methyl)phenyl)-3-((1-propyl-1H-1,2,3-triazol-4-yl)methoxy)propanoic acid] was under 1 nM.
The value for `CCCn1cc(CO[C@H](c2ccc(C)c(CN3CC(C)(C)Oc4ccccc4S3(=O)=O)c2)C(C)(C)C(=O)O)nn1` [Example 78, (R)-3-(3-((4,4-dimethyl-1,1-dioxido-3,4-dihydro-2H-benzo[b][1,4,5]oxathiazepin-2-yl)methyl)-4-methylphenyl)-2,2-dimethyl-3-((1-propyl-1H-1,2,3-triazol-4-yl)methoxy)propanoic acid] was 1 to 10 nM; that for `COC(=O)C(C)(C)C(OCc1cn(Cc2cccc(-c3ccnc(C(=O)O)c3)c2)nn1)c1ccc(C)c(CN2C[C@@H](C)Oc3ccccc3S2(=O)=O)c1` (stereo partly drawn) [Example 57, 4-(3-((4-((3-Methoxy-2,2-dimethyl-1-(4-methyl-3-(((R)-4-methyl-1,1-dioxido-3,4-dihydro-2H-benzo[b][1,4,5]oxathiazepin-2-yl)methyl)phenyl)-3-oxopropoxy)methyl)-1H-1,2,3-triazol-1-yl)methyl)phenyl)picolinic acid] was 100 to 1000 nM.
Consider `CCCn1cc(COC(c2ccc(C)c(CN3C[C@@H](CC)Oc4ccccc4S3(=O)=O)c2)C(C)(C)C(=O)O)nn1` (stereo partly drawn) [Example 4, 3-(3-(((R)-4-ethyl-1,1-dioxido-3,4-dihydro-2H-benzo[b][1,4,5]oxathiazepin-2-yl)methyl)-4-methylphenyl)-2,2-dimethyl-3-((1-propyl-1H-1,2,3-triazol-4-yl)methoxy)propanoic acid], for which the EC50 was under 1 nM.
In the case of `CCc1cn(Cc2cccc(Cn3cc(COC(c4ccc(C)c(CN5C[C@@H](C)Oc6ccccc6S5(=O)=O)c4)C(C)(C)C(=O)O)nn3)c2)nn1` (stereo partly shown) [Example 38] it was 10 to 100 nM.
In the case of `CCCn1cc(CO[C@H](c2ccc(C)c(CN3C[C@@H](C)Cc4ccc(F)cc4S3(=O)=O)c2)C(C)(C)C(=O)O)nn1` [Example 87, (R)-3-(3-(((S)-8-fluoro-4-methyl-1,1-dioxido-4,5-dihydrobenzo[f][1,2]thiazepin-2(3H)-yl)methyl)-4-methylphenyl)-2,2-dimethyl-3-((1-propyl-1H-1,2,3-triazol-4-yl)methoxy)propanoic acid] it was under 1 nM; in that of `CC[C@@H]1CN(Cc2cc(C(OCc3cn(Cc4cccc(Cn5cc(CO)nn5)c4)nn3)C(C)(C)C(=O)O)ccc2C)S(=O)(=O)c2ccccc2O1` (stereo partly drawn) [Example 28, 3-(3-(((R)-4-ethyl-1,1-dioxido-3,4-dihydro-2H-benzo[b][1,4,5]oxathiazepin-2-yl)methyl)-4-methylphenyl)-3-((1-(3-((4-(hydroxymethyl)-1H-1,2,3-triazol-1-yl)methyl)benzyl)-1H-1,2,3-triazol-4-yl)methoxy)-2,2-dimethyl-propanoic acid], 10 to 100 nM; in that of `CC[C@@H]1CN(Cc2cc(C(OCc3cn(CC)nn3)C(C)(C)C(=O)O)ccc2C)S(=O)(=O)c2ccccc2O1` (stereo partly drawn) [Example 10, 3-(3-(((R)-4-ethyl-1,1-dioxido-3,4-dihydro-2H-benzo[b][1,4,5]oxathiazepin-2-yl)methyl)-4-methylphenyl)-3-((1-ethyl-1H-1,2,3-triazol-4-yl)methoxy)-2,2-dimethylpropanoic acid], under 1 nM.
